Values quoted from earlier work, collected in patent US10265268B2, “External composition for screen foamers” (POLA PHARMA INC., priority 2014, dated 2019).

Settings: surfactants from NIKKOL / suitable examples

Compound | HLB
CCCCCCCCCCCCCCCCCC(=O)OCC(O)CO (centres unmarked) [Glyceryl monostearate] | 4.0
Polyethylene glycol monostearate (40 E.O.) | 17.5
Polyoxyethylene (10) cetyl ether | 13.5
Polyoxyethylene (20) behenyl ether | 16.5
Polyoxyethylene (20) polyoxypropylene (8) cetyl ether | 12.5
